Species on record: Rattus norvegicus
Test: Open TG-GATES - Regimen: Single
Format: toxicity, organism-based, Sprague-Dawley
Set-up: regimen Single, gender Male, age 6 weeks
Settings: in vivo, po, route gavage; for Hb / Ht / Lym / MCH / MCHC / MCV / Mono / Neu / PT / Plat / RBC / Ret / WBC / APTT / Bas / Eos / Fbg: tissue Blood; for KIDNEY_L / KIDNEY_R / KIDNEY_TOTAL: tissue Kidney; for LIVER: tissue Liver; for A/G / ALP / ALT / AST / BUN / CRE / Ca / Cl / DBIL / GLC / IP / K / LDH / Na / PL / RALB / TBIL / TC / TG / TP / gamma-GTP: tissue Plasma
[1] = 15 mg/kg, 6 h, dose level Middle
[2] = 15 mg/kg, 9 h, dose level Middle
[3] = 15 mg/kg, 24 h, dose level Middle

Compound `COc1ccc2c(c1)c(CC(=O)O)c(C)n2C(=O)c1ccc(Cl)cc1` [INDOMETHACIN] has a Hb [1] of 14 g/dL, a Ht [1] of 38.4% and a Lym [1] of 71.4%. The MCH [1] was 22.9 pg, the MCHC [1] was 36.6% and the MCV [1] was 62.7 fL. The Mono [1] was 3.4%, the Neu [1] was 22.8% and the PT [1] was 12.2 s. The Plat [1] was 116.9 x10_4/uL, the RBC [1] was 613.2 x10_4/ul and the Ret [1] was 7.8%. For the same compound, the WBC [1] was 112.3 x10_2/uL, the KIDNEY_L [1] was 1 g and the KIDNEY_R [1] was 1 g. It also gave a KIDNEY_TOTAL [1] of 2 g, an LIVER [1] of 9.3 g and an A/G [1] of 1.6. It also gave an ALP [1] of 853.6 IU/L, an ALT [1] of 39.6 IU/L and an AST [1] of 70 IU/L. It also gave a BUN [1] of 12.8 mg/dL, a CRE [1] of 0.4 mg/dL and a Ca [1] of 10.5 mg/dL. The Cl [1] was 103.4 meq/L, the DBIL [1] was 0.074 mg/dL and the GLC [1] was 200.2 mg/dL. It also gave an IP [1] of 9.5 mg/dL, a K [1] of 4.1 meq/L and an LDH [1] of 204.8 IU/L. The Na [1] was 140.8 meq/L, the PL [1] was 135.6 mg/dL and the RALB [1] was 3.2 g/dL. The TBIL [1] was 0.1 mg/dL, the TC [1] was 74.4 mg/dL and the TG [1] was 66.6 mg/dL. It also gave a TP [1] of 5.3 g/dL, a gamma-GTP [1] of 1.2 IU/L and a TERMINAL_BW [2] of 220.7 g. The APTT [2] was 18 s, the Bas [2] was 0% and the Eos [2] was 0.4%. The Fbg [2] was 217.2 mg/dL, the Hb [2] was 13.6 g/dL and the Ht [2] was 37.1%. For the same compound, the Lym [2] was 69.4%, the MCH [2] was 22.4 pg and the MCHC [2] was 36.6%. For the same compound, the MCV [2] was 61.1 fL, the Mono [2] was 3.4% and the Neu [2] was 24.8%. The PT [2] was 12.5 s, the Plat [2] was 119.6 x10_4/uL and the RBC [2] was 607 x10_4/ul. It also gave a Ret [2] of 7.9%, a WBC [2] of 101.8 x10_2/uL and a KIDNEY_L [2] of 0.9 g. It also gave a KIDNEY_R [2] of 0.9 g, a KIDNEY_TOTAL [2] of 1.9 g and an LIVER [2] of 8.7 g. For the same compound, the A/G [2] was 1.6, the ALP [2] was 719.4 IU/L and the ALT [2] was 29.2 IU/L. For the same compound, the AST [2] was 63.8 IU/L, the BUN [2] was 13 mg/dL and the CRE [2] was 0.3 mg/dL. It also gave a Ca [2] of 10.4 mg/dL, a Cl [2] of 104.2 meq/L and a DBIL [2] of 0.07 mg/dL. The GLC [2] was 186.8 mg/dL, the IP [2] was 10 mg/dL and the K [2] was 4 meq/L. It also gave an LDH [2] of 202.2 IU/L, a Na [2] of 141.4 meq/L and a PL [2] of 125.4 mg/dL. It also gave an RALB [2] of 3.2 g/dL, a TBIL [2] of 0.1 mg/dL and a TC [2] of 69.6 mg/dL. For the same compound, the TG [2] was 36.8 mg/dL, the TP [2] was 5.2 g/dL and the gamma-GTP [2] was 1 IU/L. For the same compound, the TERMINAL_BW [3] was 227.1 g, the APTT [3] was 19.7 s and the Bas [3] was 0.2%. It also gave an Eos [3] of 0.8%, a Fbg [3] of 294.2 mg/dL and a Hb [3] of 10.8 g/dL. The Ht [3] was 31%, the Lym [3] was 57.8% and the MCH [3] was 21.3 pg. For the same compound, the MCHC [3] was 34.9%, the MCV [3] was 61.2 fL and the Mono [3] was 2.4%. For the same compound, the Neu [3] was 37.8%, the PT [3] was 12.2 s and the Plat [3] was 94.5 x10_4/uL. The RBC [3] was 509.2 x10_4/ul, the Ret [3] was 7.9% and the WBC [3] was 93.5 x10_2/uL. The KIDNEY_L [3] was 1 g, the KIDNEY_R [3] was 1 g and the KIDNEY_TOTAL [3] was 2.1 g. The LIVER [3] was 9.5 g, the A/G [3] was 1.3 and the ALP [3] was 547.6 IU/L. The ALT [3] was 28 IU/L, the AST [3] was 57 IU/L and the BUN [3] was 14.4 mg/dL. It also gave a CRE [3] of 0.4 mg/dL, a Ca [3] of 9.8 mg/dL and a Cl [3] of 105.4 meq/L. The DBIL [3] was 0.06 mg/dL, the GLC [3] was 173.2 mg/dL and the IP [3] was 9.6 mg/dL. The K [3] was 4.2 meq/L, the LDH [3] was 180.2 IU/L and the Na [3] was 141.2 meq/L. For the same compound, the PL [3] was 127 mg/dL, the RALB [3] was 2.5 g/dL and the TBIL [3] was 0.1 mg/dL. The TC [3] was 72.8 mg/dL, the TG [3] was 80.8 mg/dL and the TP [3] was 4.3 g/dL. For the same compound, the gamma-GTP [3] was 1.4 IU/L, the TERMINAL_BW (50 mg/kg, 3 h, dose level High) was 226 g and the APTT (50 mg/kg, 3 h, dose level High) was 21.4 s. The Bas (50 mg/kg, 3 h, dose level High) was 0.2%, the Eos (50 mg/kg, 3 h, dose level High) was 1% and the Fbg (50 mg/kg, 3 h, dose level High) was 216.6 mg/dL. For the same compound, the Hb (50 mg/kg, 3 h, dose level High) was 13.8 g/dL, the Ht (50 mg/kg, 3 h, dose level High) was 37.8% and the Lym (50 mg/kg, 3 h, dose level High) was 73.6%. For the same compound, the MCH (50 mg/kg, 3 h, dose level High) was 22.2 pg, the MCHC (50 mg/kg, 3 h, dose level High) was 36.4% and the MCV (50 mg/kg, 3 h, dose level High) was 60.9 fL. It also gave a Mono (50 mg/kg, 3 h, dose level High) of 2.4%, a Neu (50 mg/kg, 3 h, dose level High) of 22% and a PT (50 mg/kg, 3 h, dose level High) of 12 s. The Plat (50 mg/kg, 3 h, dose level High) was 119.2 x10_4/uL, the RBC (50 mg/kg, 3 h, dose level High) was 621.6 x10_4/ul and the Ret (50 mg/kg, 3 h, dose level High) was 8.1%. It also gave a WBC (50 mg/kg, 3 h, dose level High) of 114.1 x10_2/uL, a KIDNEY_L (50 mg/kg, 3 h, dose level High) of 0.9 g and a KIDNEY_R (50 mg/kg, 3 h, dose level High) of 0.9 g. The KIDNEY_TOTAL (50 mg/kg, 3 h, dose level High) was 1.9 g, the LIVER (50 mg/kg, 3 h, dose level High) was 9.8 g and the A/G (50 mg/kg, 3 h, dose level High) was 1.6. The ALP (50 mg/kg, 3 h, dose level High) was 971 IU/L.

Source: ChEMBL document CHEMBL3885861, “Open TG-GATES”
